Source: US4425352A, “Substituted phenoxyacetates of cyclic amines” (Agence Nationale de Valorisation de la Recherche, priority 1980, dated 1984)
Several values for one entry are separate records, joined by “and”; a condition that tells them apart may be missing. Identical values can stand only once.

Assays:
mice = assay: Acute toxicity (LD 50) per os and intraveinous, Litchfield and Wilcoxon method; format: in vivo; conditions: for LD 50 I.V.: intraveinous; for LD 50 P.O.: per os
Description: The toxicities were calculated according to the LITCHFIELD and WILCOXON method (J. Pharm. and Exp. Therap. 1949, 96, p. 99, 113).
The products were administered per os and per intraveinous route to mice.

fish chromatophores = assay: Action on the fish chromatophores (time of blackening); format: in vivo, Phoxinus Phoxinus Linne; conditions: at minimum effectual concentration
Description: The physiology of fish chromatophores is dependent on hypothalamic secretions of the lower portion of the diencephalon. The psychotropic and cerebral-orientation drugs can modify the physiology of these regions [J. Thuillier et al. C.R. Soc. […] This test is known to evidence the action of the products on the diencephalon which controls distension and blackening of fish chromatophores. […] The time for the fish blackening to occur was measured. The same test was effected with Meclofexonate.

cerebral oedema of rats = assay: Actions on cerebral oedema caused by triethyltin chloride; format: in vivo; conditions: 50 mg per kilogram
Description: The alkylated tin compounds are toxic and cause selective oedema of the central nervous system and in particular of the brain (Works of R. KATZMAN et al. Arch. Neurol. 9, 178, 1963). The water content of the cerebral tissue is increased. Similarly, the cerebral sodium content increases, while the potassium is reduced.
100 mg per kg of Meclofenoxate are required to provide the same result.

[1] = tested on: mice intoxicated with aurothioglucose; assay: Protective effect against the action of aurothioglucose (hyperphagia, stomach weight, weight gain); format: in vivo; set-up: Decrease in the stomach weight with respect to the aurothioglucose reference: unit not given here; conditions: for Action against hyperphagia and weight gain of mice intoxicated with aurothioglucose: given 1/2 hour before aurothioglucose 250 mg/kg; for Weight increase: 15 days after beginning, aurothioglucose alone 49%
Description: Hunger and thirst regulation is dependent on stimulating secretions from the hypothalamus. These regulator centers may be disturbed either in acquired manner in genetically obese animals, either consequently to the destruction of the involved centers by selective poisons, such as aurothioglucose.
If 250 mg/kg of aurothioglucose are injected to mice, then the cells of the hypothalamic nuclei will degenerate and cause an hyperphagia syndrome in animals which is evidenced by:
a distension of the stomach,
a considerable increase in ponderal growing.
The mice were treated with one of the products of the invention 1/2 hour before the intraperitoneal injection of aurothioglucose (250 mg/kg).

rats = assay: Orientation test after an electroshock; format: in vivo
Excerpt: This test consists in causing a loss of orientation and motive disorders in rats after repetition of 4 series of electroshock [M. Herold: Acta. Int. Meet. Psycho. Drug.

[2] = tested on: mice rendered obese by aurothioglucose; assay: Curative action after development of obesity under the action of aurothioglucose; format: in vivo; conditions: for Decrease in weight/Aurothioglucose references: 18 days, per os; for Activity compared with Meclofenoxate at 200 mg/kg: in words
Description: Mice were rendered obese by intra-peritoneal injections of aurothioglucose (800 mg/kg).
After the development of obesity, a plateau was obtained in the weight curve. There was then selected an homogenous group of mice and treatment with PM 170 and Meclofenoxate was initiated. The results obtained were compared with a group of reference mice treated only with aurothioglucose (ATG controls).

genetically obese mice [3] = assay: Action on genetically obese mice; format: in vivo; conditions: for Decrease in weight: obese mice, gastric ingestion, 18 days
Description: Finally, gastric ingestion during 18 days of 200 mg/kg of PM 170 causes, in obese mice, a steady decrease in weight of 8.3%, while in the same conditions there occurs, with Meclofenoxate, a decrease in weight of 2.2%.

Diuretic action = format: in vivo
central nervous system = assay: Actions on the central nervous system (overall statement); format: in vivo; conditions: versus Meclofenoxate
genetically obese mice [4] = assay: Action on genetically obese mice; format: in vivo; set-up: Alimentary consumption: unit not given here; conditions: for Weight: in g
blood platelet clotting = assay: Effect against blood platelet clotting (pia-mater vessels); format: in vivo, rabbits; conditions: dose not stated
Description: All the products of the invention prepared according to Examples 1 and 2 at a dose of 10 mg/kg have an effect against plaquette aggregation which was observed on the pia-mater vessels of rabbits [M. M. G. BOZEIX 7th. Int. Congress of Pharmacology, Paris, July 1978].

| Structure (SMILES) | LD 50 I.V. (mice) [mg] | LD 50 P.O. (mice) [mg] | Time of occurrence of the blackening (fish chromatophores) [s] | Effect on the build up of Na+ (cerebral oedema of rats) | Effect on the loss of K+ (cerebral oedema of rats) | Occurrence of the oedema caused by triethyltin chloride (cerebral oedema of rats) | Decrease in the stomach weight with respect to the aurothioglucose reference ([1]; 100 mg/kg P.O) | Action against hyperphagia and weight gain of mice intoxicated with aurothioglucose [1] | Weight increase [1] [%] | Decrease in aliment consumption/ATG references ([2]; 50 mg/kg) | Decrease in weight/Aurothioglucose references ([2]; 50 mg/kg per day) | Decrease in aliment consumption/ATG references ([2]; 100 mg/kg) [%] | Decrease in weight/Aurothioglucose references ([2]; 100 mg/kg per day) [%] | Decrease in aliment consumption/ATG references ([2]; 200 mg/kg) | Decrease in weight/Aurothioglucose references ([2]; 200 mg/kg per day) [%] | Decrease in weight (genetically obese mice [3]; 200 mg/kg) [%] | other results |
| --- | --- | --- | --- | --- | --- | --- | --- | --- | --- | --- | --- | --- | --- | --- | --- | --- | --- |
| CN1CCCCC1COC(=O)COc1ccc(Cl)cc1 (centres unmarked) [PM 172, N-methyl-2-hydroxymethyl-piperidine 4-chloro-phenoxyacetate] | 160 | 1500 | 60 | limit the build up of Na^+ | counteract the loss of K^+ | considerably reduce the occurrence of the oedema | 2.2727 | counteract both hyperphagia and the weight gain | – | – | – | – | – | – | – | – | Decrease in the stomach weight with respect to the aurothioglucose reference ([1]; 60 mg/kg P.O): 2.6299 |
| CN1CCCC(COC(=O)COc2ccc(Cl)cc2)C1 (centres unmarked) [PM 170, N-methyl-3-hydroxymethyl-piperidine (4-chloro-phenoxyacetate)] | 175 | 2300 | 90 | limit the build up of Na^+ | counteract the loss of K^+ | considerably reduce the occurrence of the oedema | 4.2287 | counteract both hyperphagia and the weight gain | 34 | 10% | 5% | 33 | 12 | 36% | 14 | 8.3 | Toxicity compared with Meclofenoxate / overall toxicity (mice; in words): less toxic than "Meclofenoxate"; Efficacy in orientation test after electroshock (rats; 100 mg, first 2 series of electroshock): slightly effective; Decrease in the stomach weight with respect to the aurothioglucose reference ([1]; 20 mg/kg P.O): 3.2155; Decrease in the stomach weight with respect to the aurothioglucose reference ([1]; 50 mg/kg P.O): 2.8729; Activity against increase of the stomach weight distension ([1]; in words): very high activity; Activity compared with Meclofenoxate at 200 mg/kg ([2]; 50 mg/kg): same activity at 50 mg/kg than Meclofenoxate at 200 mg/kg; Activity compared with Meclofenoxate at 200 mg/kg ([2]; 200 mg/kg): markedly higher than Meclofenoxate at 200 mg/kg; Activity on alimentary consumption and weight development (genetically obese mice [3]; genetically obese mice of 42-42.5 g, in words): active both on alimentary consumption and on weight development; Weight (genetically obese mice [3]; treated obese males, 200 mg/kg, obese male controls 43.3 ± 0.284, in g): 39.3 ± 0.882; Diuretic action (Diuretic action; 100 mg/kg): slight diuretic action; Activity on the central nervous system relative to Meclofenoxate (central nervous system): from five to twelve times more active than Meclofenoxate; Alimentary consumption (genetically obese mice [4]; treated normal males, 200 mg/kg, normal male controls 6.307 ± 0.746): 4.716 ± 0.880; Weight (genetically obese mice [4]; treated normal males, 200 mg/kg, normal male controls 25.34 ± 0.365): 22.22 ± 0.484; Alimentary consumption (genetically obese mice [4]; treated obese males, 200 mg/kg, obese male controls 6.786 ± 0.853): 4.384 ± 0.886 |
| CN(C)CCOC(=O)COc1ccc(Cl)cc1 [Meclofenoxate, dimethylaminoethyl 4-chlorophenoxyacetate, reference compound] | 350 | 1750 | 90 | – | – | – | – | – | 45 | inactive | inactive | 26 | 10 | 23% and 22.9% | 5 | 2.2 | Efficacy in orientation test after electroshock (rats; up to 200 mg/kg): absolutely inefficient; Decrease in the stomach weight with respect to the aurothioglucose reference ([1]; 250 mg/kg P.O): 2.2495; Decrease in the stomach weight with respect to the aurothioglucose reference ([1]; 300 mg/kg P.O): 1.6129; minimal effective dose ([1]; Mus musculus, stomach weight, Table IV, read-out: Dosage at which (only) active): 250 mg/kg; Times less active than PM 170 ([1]; stomach weight, versus PM 170): 12.4 times; Activity to counteract obesity caused by aurothioglucose ([1]; versus PM 170, in words): less active than PM 170; Effect against blood platelet clotting (blood platelet clotting): no effect against blood platelet clotting; Diuretic action (Diuretic action; dose not stated): no effect against blood platelet clotting nor diuretic action; Alimentary consumption (genetically obese mice [4]; treated normal females, 300 mg/kg, normal female controls 6.703 ± 0.597): 5.842 ± 0.842; Weight (genetically obese mice [4]; treated normal females, 300 mg/kg, normal female controls 25.3 ± 0.504): 24.8 ± 0.602; Alimentary consumption (genetically obese mice [4]; treated obese females, 300 mg/kg, obese female controls 6.347 ± 0.637): 5.542 ± 0.302; Weight (genetically obese mice [4]; treated obese females, 300 mg/kg, obese female controls 42.5 ± 0.787): 41.2 ± 0.802 |
| CCN1CCCC(OC(=O)COc2ccc(Cl)cc2)C1 (centres unmarked) [PM 168, N-ethyl-3-piperidine 4-chloro-phenoxyacetate] | 140 | 1800 | 30 | limit the build up of Na^+ | counteract the loss of K^+ | considerably reduce the occurrence of the oedema | 2.5510 | counteract both hyperphagia and the weight gain | – | – | – | – | – | – | – | – | Decrease in the stomach weight with respect to the aurothioglucose reference ([1]; 150 mg/kg P.O): 3.37 |
